Tests used:
[1] = tested on: BCMA-expressing RPMI-8226 MM cells; assay: Rescue of chronically stimulated anti-BCMA CAR T cells rechallenged with RPMI-8226 MM cells; type: cell-based; conditions: 1 nm or 10 nM during rechallenge
Experimental: Studies were undertaken to determine whether Compound 2 rescued anti-BCMA CAR T cell function following chronic stimulation. To directly stimulate via CAR engagement to induce chronic stimulation of cells, anti-BCMA CAR T cells were stimulated with BCMA conjugated beads (diameter about 4.5 pm from a 50 μg/ml BCMA-conjugated bead composition, generated as described in Example 9) at a ratio of T cells to beads of 1:1. The cells were then incubated at 37° C., 5% CO2 for 7 days.
Cultures were incubated at 37° C., 5% CO2, and images were taken every 2 hours over 5-7 days with an Essen IncuCyte Zoom live-cell analysis system to track NucLightRed-positive target cells.

OPM-2 = OPM-2 human multiple myeloma orthotopic mouse model, Study 2; type: in vivo
Experimental: In a further study, NOD/Scid/gc^−/− (NSG) mice were injected (i.v.) with OPM-2-luciferase cells as described in Study 1 above and allowed to engraft for 14 days prior to CAR-T (or mock) cell; infusion (i.v.).
At 14 days after tumor cell injection (day 0), a subtherapeutic dose of CAR+ T cells (1×10^6 CAR-T cells (generated from two different donors)) or mock control cells was injected intravenously. Data are presented as mean±SEM. For in vivo survival, a Gehan-Breslow-Wilcoxon test was used to compare groups.
FIG. 10E depicts the results of tumor burden assessment through day 60, as analyzed by the bioluminescence […]. […] P values were obtained by likelihood ratio tests comparing the full model with the effect of interest against the model without the effect of interest.
Blood from the treated mice was collected for CAR-T pharmacokinetic analysis, and cells were stained with antibodies to exclude mouse-specific cells (H2-kd, TER119, and muCD45) and analyzed by flow cytometry. Cells were gated on CD45+CD3+ CAR+ and the cells per microliter of blood was determined. For pharmacokinetic measurements, each time point was analyzed by one-way ANOVA and Tukey post-hoc test. FIGS. 10G and 10H show the flow cytometric analysis of mock control cells and CAR-T cells in the blood of the mice at days 8, 14, 22, and 28 following injection of the CAR-T cells from two donors.

CAR-expressing T cells = assay: RNA-seq and ATAC-seq of CAR-expressing T cells stimulated in the presence of lenalidomide; type: cell-based
Experimental: Directionality and significance of the effects on biological pathways are shown at 24 hours (FIG. 28A) or 7 days (FIG. 28B).
Importantly, the upregulation of IFN-γ and CD25 supported previous findings from chronic stimulation experiments.

anti-BCMA CAR T cells = assay: Cytokine expression of anti-BCMA CAR T cells stimulated with BCMA-conjugated beads; type: cell-based, human; conditions: 24 hours
Experimental: Cryofrozen anti-BCMA CAR T cells, produced substantially as described in Example 1 and formulated at a 1:1 ratio of CD4+ and CD8+ T cells, were thawed.
Twenty four hours after addition of BCMA-conjugated beads, the presence of TNF-α, IFNγ, and IL-2 in culture supernatants was assessed.
In a further exemplary study, two different anti-BCMA CAR T cell compositions were generated from different donors, each containing T cells expressing the same anti-BCMA CAR. The cells were thawed and incubated with beads (diameter about 4.5 pm) from a 5 μg/mL or 200 μg/mL BCMA-conjugated bead composition generated as described in Example 1. […] Twenty four hours after addition of BCMA-conjugated beads, IL-2 production by the anti-BCMA CAR+ T cells was assessed in culture supernatants.
The cells were gated on transduced, live CD3+ cells, and assessed by flow cytometry for intracellular cytokine accumulation of IFNγ and TNFα in CD4+ and CD8+ cells.

[2] = concurrent lenalidomide (from day −1), vs vehicle with anti-BCMA CAR T alone

Row | SMILES | cytolytic activity of chronically stimulated anti-BCMA CAR T cells ([1]; 0.3:1 E:T) | production of IFN-gamma, IL-2 or TNF-alpha ([1]; 24 hours) | tumor growth and tumor burden in mice administered CAR+ T cells (OPM-2; 10 mg/kg i.p. daily, 1×10^6 CAR-T cells, both donors, through day 60) | survival, donor 1 and donor 2 (OPM-2; [2]) | tumor burden, donor 1 (OPM-2; [2]) | CAR T counts in the peripheral blood after 7 days (OPM-2; concurrent lenalidomide dosing regimen, not at later time points) | mock CAR T effect on tumor burden, donor 1 (OPM-2; lenalidomide with mock cells) | expression of genes involved in T cell activation and signaling (RNA-seq) (CAR-expressing T cells; 24 hours or 7 days) | Th2-associated gene signatures (CAR-expressing T cells; 7 days of stimulation) | pathways associated with Th1 T-cell response and co-stimulation (CAR-expressing T cells; 7 days of stimulation) | CD69 and CCR7 chromatin accessibility and gene transcription (CAR-expressing T cells; 7 days with stimulation) | chromatin accessibility at loci associated with IFN-γ and IL-2RA (CD25) (CAR-expressing T cells; 7 days with stimulation) | intracellular IFNγ and TNFα cytokine production (anti-BCMA CAR T cells; 0.1 μM or 1 μM, 5, 50 or 200 μg/mL BCMA beads) | IL-2 production in culture supernatants (anti-BCMA CAR T cells; 1 μM or 5 μM, 5 or 200 μg/mL BCMA beads, two donors) | BCMA-induced CAR+ T cell cytokine production (TNF-α, IFNγ, IL-2 in supernatants) (anti-BCMA CAR T cells; 5 μM, 5 or 50 μg/mL BCMA beads)
1 | O=C1CC[C@H](N2Cc3c(OCc4ccc(CN5CCOCC5)cc4)cccc3C2=O)C(=O)N1 [Compound 2, (S)-3-[4-(4-morpholin-4-ylmethyl-benzyloxy)-1-oxo-1,3-dihydro-isoindol-2-yl]-piperidine-2,6-dione] | improvement in cytolytic activity | increased production |  |  |  |  |  |  |  |  |  |  |  |  | 
2 | Nc1cccc2c1CN(C1CCC(=O)NC1=O)C2=O (stereo not drawn) [lenalidomide, 3-(4-amino-1-oxo-1,3-dihydro-2H-isoindol-2-yl)piperidine-2,6-dione] |  |  | slower tumor growth and reduced tumor burden | increased survival | significant decrease | increased | small, but significant | increased expression of genes involved in T cell activation and signaling | decreasing | upregulated | decrease | significant increase in chromatin accessibility | increased | increased | increased
